In test [1] the test system is C-mycG4 (Pu-27); C-myc G4 (DNA, G4) TGGGGAGGGTGGGGAGGGTGGGGAAGG
Briefly: PCR-stop assay. As to conditions: 50 mM KCl; Platinum Supermix, 0.5 uM each oligonucleotide, Pu27rev primer; dose-dependent reduction of product.

For test [2], the system named is Pu27rev (DNA, single strand) ATCGATCGCTTCTTCGTCCTTCCCCA
As to the kind of experiment: SPR (Biacore 3000). As to conditions: 200 mM KCl, 5 mM MgCl2; 20 mM HEPES pH 7.5, 1% DMSO, 0.005% P-20; immobilised compound; NB, oligonucleotide up to 10 uM. Background: SPR reads the build-up and loss of mass on a sensor chip optically.

Test [3] deals with C-mycG4 (Pu-27); C-myc G4 (DNA, G4) TGGGGAGGGTGGGGAGGGTGGGGAAGG
As to the kind of experiment: SPR (Biacore 3000), 1:1 Langmuir kinetics. As to conditions: 200 mM KCl, 5 mM MgCl2, 20 mM HEPES pH 7.5, 1% DMSO, 0.005% P-20, immobilised compound.

Test [4] deals with c-myc_G4_2345; Pu21_2345 (DNA, G4) GAGGGTGGGGAGGGTGGGGAA
As to the kind of experiment: SPR (Biacore 3000), 1:1 Langmuir kinetics. As to conditions: 200 mM KCl, 5 mM MgCl2, 20 mM HEPES pH 7.5, 1% DMSO, 0.005% P-20, immobilised compound.

The subject of test [5] is C-kit2; C-kit2 G4 (DNA, G4) GGGCGGGCGCGAGGGAGGGG
Briefly: SPR (Biacore 3000), 1:1 Langmuir kinetics. The following applies: 200 mM KCl, 5 mM MgCl2; 20 mM HEPES pH 7.5, 1% DMSO, 0.005% P-20; immobilised compound.

The subject of test [6] is C-kit1; C-kit1 G4 (DNA, G4) AGGGAGGGCGCTGGGAGGAGGG
As to the kind of experiment: SPR (Biacore 3000), 1:1 Langmuir kinetics. As to conditions: 200 mM KCl, 5 mM MgCl2; 20 mM HEPES pH 7.5, 1% DMSO, 0.005% P-20; immobilised compound.

Test [7] concerns c-myc_G4_1234; Pu21_1234 (DNA, G4) TGGGGAGGGTGGGGAGGGTGG
Briefly: SPR (Biacore 3000), 1:1 Langmuir kinetics. As to conditions: 200 mM KCl, 5 mM MgCl2, 20 mM HEPES pH 7.5, 1% DMSO, 0.005% P-20, immobilised compound.

The KD is the free concentration of one partner at which half of the binding sites on the other are occupied at equilibrium, for simple one-to-one binding.

As for `Cc1cnccc1N1CCN(c2nccc3c2nc(-c2c[nH]c4ccncc24)n3CCOCCOCCN)CC1`, in test [1], the binding result is listed as “yes”.

On to `Cn1cccc1CN(CC(=O)NCCOCCOCCNC(=O)CCCC[C@@H]1SC[C@@H]2NC(=O)N[C@@H]21)Cc1ccc(OCC(=O)NCc2nc3ccccc3c(=O)[nH]2)c(Cl)c1`, for which, in test [2], the binding entry was “no”. In addition, the KD was 1.05 µM in test [3] (text prints 1.06 µM); 308 nM in test [4]; 1.7 µM in test [5]; 1.1 µM in test [6]; 338 nM in test [7] (text prints 328 nM).

Regarding `Cc1cnccc1N1CCN(c2nccc3c2nc(-c2c[nH]c4ccncc24)n3CCOCCOCCNC(=O)CCCC[C@@H]2SC[C@@H]3NC(=O)N[C@@H]32)CC1`, in test [2], the binding result is listed as “no”. The dissociation constant KD in test [3] stood at 0.328 µM; in test [4] (text prints 190 nM), 197 nM; in test [5], 1.4 µM; in test [6], 0.807 µM; in test [7] it was 59 nM.

For the molecule `Cn1cccc1CN(CC(=O)NCCOCCOCCN)Cc1ccc(OCC(=O)NCc2nc3ccccc3c(=O)[nH]2)c(Cl)c1`, the binding entry in test [1] is recorded as “yes”.

Source of the values: publication PMC6572338 (2019).
